Measured values reported in publication PMC12044245 (Emerging Infectious Diseases, 2025).

What was measured:
[1] = target: NA (neuraminidase) of A/Yamagata/103/2024 (Influenza A virus, UniProt C3W5S3); type: biochemical
[2] = target: NA (neuraminidase) of A/Yamagata/333/2023 (Influenza A virus, UniProt C3W5S3)
[3] = tested on: recombinant A/WSN/33(H1N1) with PA I38N substitution; conditions: ref [3],[9]; cited from earlier work
[4] = tested on: recombinant A/Victoria/3/75(H3N2) with PA I38N substitution; conditions: ref [3],[9]; cited from earlier work

Compound | IC50 [1] [nM] | IC50 [2] [nM] | fold reduction in baloxavir susceptibility conferred by PA I38N substitution [3] [fold] | fold reduction in baloxavir susceptibility conferred by PA I38N substitution [4] [fold]
CCC(CC)[C@H](NC(C)=O)[C@@H]1[C@H](O)[C@@H](C(=O)O)C[C@H]1N=C(N)N [Peramivir, peramivir] | 0.11 | 0.08 | – | –
O=C1c2c(O)c(=O)ccn2N([C@@H]2c3ccccc3SCc3c2ccc(F)c3F)[C@@H]2COCCN12 [Baloxavir, baloxavir acid] | – | – | 24 | 10
